Biological target: T1, human serum albumin (HSA) (Homo sapiens, UniProt P02768)
T1 construct: gene ALB
Assay: X-ray crystal structure at […] Å (seven molecules seen in the HSA Fe complex adduct)
Type: binding

T1 sequence (P02768 25-609): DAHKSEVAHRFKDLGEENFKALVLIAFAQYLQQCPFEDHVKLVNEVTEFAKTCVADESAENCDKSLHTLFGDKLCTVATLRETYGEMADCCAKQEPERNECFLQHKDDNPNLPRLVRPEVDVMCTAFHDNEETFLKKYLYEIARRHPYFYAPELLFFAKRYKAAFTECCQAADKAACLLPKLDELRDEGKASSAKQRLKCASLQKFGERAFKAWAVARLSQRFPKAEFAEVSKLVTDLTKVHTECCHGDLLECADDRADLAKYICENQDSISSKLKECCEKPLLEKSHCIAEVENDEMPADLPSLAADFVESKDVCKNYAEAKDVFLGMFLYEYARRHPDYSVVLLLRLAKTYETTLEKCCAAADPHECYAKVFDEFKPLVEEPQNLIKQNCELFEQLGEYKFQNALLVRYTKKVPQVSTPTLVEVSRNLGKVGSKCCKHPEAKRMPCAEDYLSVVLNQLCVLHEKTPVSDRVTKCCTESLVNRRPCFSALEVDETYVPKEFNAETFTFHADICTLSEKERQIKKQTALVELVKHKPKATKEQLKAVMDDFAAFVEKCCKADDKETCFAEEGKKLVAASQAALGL

**Q.** With `CCCCCCCCCCCCCCCC(=O)O` [PA, palmitic acid] as the molecule, how does the “X-ray crystal structure at 2.4 Å (seven molecules seen in the HSA Fe complex add)” value read?
**A.** The value was “seven palmitic acid (PA) molecules are present in the subdomains of I–III”.

From publication PMC9081768, “Spectroscopy, Structure, Biomacromolecular Interactions, and Antiproliferation Activity of a Fe(II) Complex With DPA-Bpy as Pentadentate Ligand” (Frontiers in Chemistry, 2022)
